Settings: Liquid

CCOC(C)=O [ethyl acetate]
mass density [kg/m3]
Settings | 298.15 K | 303.15 K | 308.15 K | 313.15 K | 318.15 K
100 kPa | 894 | 887.6 | 881.4 | 875.2 | 868.8
1000 kPa | 894.7 | 888.5 | 882.3 | 876.1 | 869.8
2000 kPa | 895.7 | 889.5 | 883.3 | 877.2 | 871
3000 kPa | 896.7 | 890.5 | 884.4 | 878.3 | 872.2
3800 kPa | 897.4 | 891.3 | 885.3 | 879.2 | 873.1
5000 kPa | 898.8 | 892.7 | 886.7 | 880.6 | 874.5
10000 kPa | 903.4 | 897.5 | 891.7 | 885.8 | 880
15000 kPa | 907.7 | 902 | 896.4 | 890.7 | 885.1
20000 kPa | 912 | 906.3 | 900.9 | 895.4 | 889.8
25000 kPa | 916.1 | 910.7 | 905.4 | 899.8 | –
30000 kPa | 921.1 | 915.9 | 910.7 | 905.3 | –
35000 kPa | 926.3 | 921.2 | 916.2 | 910.9 | –
